US20070243182A1, “Use of Carboxypeptidease G for Combating Antifolate Toxicity” (Protherics Medicines Development Limited, priority 2004, published 2007)
Like-named read-outs stand apart in the source and are kept apart here.

Experiments:
[1] = target: T1, CPG2 (Pseudomonas sp., UniProt P06621); details: substrate of CPG2; Sherwood et al (1985); cited from earlier work
[2] = target: T1, CPG2; type: biochemical, Pseudomonas sp. strain RS-16
Experimental: (§1) A stock solution of 10 mM Tomudex in 100 mM Tris-HCl pH7.3 was prepared and used to prepare a series of dilutions from 0-100 μM in 100 mM Tris-HCl pH 7.3. 990 μl of each dilution was placed in a quartz cuvette and pre-warmed to 37° C. 10 μl of enzyme solution was added to initiate the reaction and the progress of the reaction was followed by measuring the rate of change in absorbance at 356 nm.
Measurement of the rate of reaction at a range of substrate concentrations, from 1-100 μM allows the Km and kcat for the enzyme to be determined using appropriate computer software such as “Enzfitter” (Biosoft; Cambridge, UK).
as §1, with “LY309887” for “Tomudex”, “is” for “was”, “pre-warned” for “pre-warmed”, “a suitable wavelength. […] Measurement of the rate of reaction at a range of substrate concentrations, from 1-100 μM allows the Km and kcat for the enzyme to be determined using Enzfitter computer software.” for “356 nm.”
as §1, with “AG2034” for “Tomudex”, “is” for “was”, “a suitable wavelength. […] Measurement of the rate of reaction at a range of substrate concentrations, from 1-100 μM allows the Km and kcat for the enzyme to be determined using Enzfitter computer software.” for “356 nm.”
as §1, with “AG2037” for “Tomudex”, “is” for “was”, “a suitable wavelength. […] Measurement of the rate of reaction at a range of substrate concentrations, from 1-100 μM allows the Km and kcat for the enzyme to be determined using Enzfitter computer software.” for “356 nm.”

[3] = 3-weekly schedule, paediatric population; cited from earlier work
[4] = system: bone marrow cells; details: MTX 100 μM, leucovorin calcium 1,000 μM; cited from earlier work
[5] = Rescue of Tomudex toxicity in a patient by administration of CPG2 (with or without thymidine); type: in vivo; details: thymidine given together with CPG2 to a patient with toxic plasma levels of Tomudex
Experimental: A patient who has been administered Tomudex and has toxic plasma levels of Tomudex is administered a dose of 50 Units per kg body weight of CPG2 by intravenous injection over a period of about 5 minutes.
A patient who has been administered Tomudex and has toxic plasma levels of Tomudex is administered a dose of 50 Units per kg body weight of CPG2 by intravenous injection over a period of about 5 minutes and is also administered thymidine.

[6] = example in present tense, no values given
[7] = substrate of CPG2, spectrophotometric assay, 100 mM Tris-HCl pH 7.3, 37° C., 356 nm

T1 sequence (P06621 23-415): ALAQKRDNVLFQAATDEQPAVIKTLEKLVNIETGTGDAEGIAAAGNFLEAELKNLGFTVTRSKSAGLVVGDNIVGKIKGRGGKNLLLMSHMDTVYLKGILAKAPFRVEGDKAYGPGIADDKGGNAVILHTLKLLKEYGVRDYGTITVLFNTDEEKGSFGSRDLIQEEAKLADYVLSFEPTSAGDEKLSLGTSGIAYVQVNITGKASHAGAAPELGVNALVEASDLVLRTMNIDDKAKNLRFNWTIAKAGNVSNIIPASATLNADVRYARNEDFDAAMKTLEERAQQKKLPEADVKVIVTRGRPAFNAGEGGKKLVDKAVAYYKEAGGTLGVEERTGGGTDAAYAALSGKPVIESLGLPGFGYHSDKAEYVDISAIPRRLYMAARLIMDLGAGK

For Nc1nc2c(c(=O)[nH]1)N(C=O)C(CNc1ccc(C(=O)N[C@@H](CCC(=O)O)C(=O)O)cc1)CN2 (some centres unmarked) [5-formyl TIE, 5-formyl tetrahydrofolic acid], the Km [1] is listed as 120 µM.

In the case of CN1c2c(nc(N)[nH]c2=O)NCC1CNc1ccc(C(=O)N[C@@H](CCC(=O)O)C(=O)O)cc1 (some centres unmarked) [5-methyl THF], the Km [1] is listed as 34 µM.

In the case of Cc1cc(C(=O)N[C@@H](CCC(=O)O)C(=O)O)sc1CC[C@@H]1CNc2nc(N)[nH]c(=O)c2C1 [AG2037], the “substrate of CPG2 (contacted with CPG2 in vitro)” value (“substrate of CPG2” for short) [2, 6] is reported as “found to be a substrate of CPG2”.

In the case of Nc1nc2c(c(=O)[nH]1)C[C@@H](CCc1ccc(C(=O)N[C@@H](CCC(=O)O)C(=O)O)s1)CN2 [LY309887], the “substrate of CPG2” value [2, 6] is reported as “found to be a substrate of CPG2”.

In the case of Cc1nc2ccc(CN(C)c3ccc(C(=O)N[C@@H](CCC(=O)O)C(=O)O)s3)cc2c(=O)[nH]1 [Tomudex], the “substrate of CPG2” value [2] is reported as “found to a substrate of CPG2”, the Km [2, 7] is reported as 7.8 µM and the kcat [2, 7] is reported as 24 s⁻¹. The maximum tolerated dose [3] was 6 mg/m^2.

In the case of Nc1nc2ncc(CNc3ccc(C(=O)N[C@@H](CCC(=O)O)C(=O)O)cc3)nc2c(=O)[nH]1 [folate], the Km [1] is listed as 4 µM.

For Nc1nc(=O)c2c([nH]1)NCC(CNc1ccc(C(=O)N[C@@H](CCC(=O)[O-])C(=O)[O-])cc1)N2C=O.[Ca+2] (some centres unmarked) [leucovorin calcium, calcium salt of 5-formyl tetrahydrofolic acid], the “protection of bone marrow cells from MTX toxicity” value [4] is given as “unable to protect bone marrow cells from toxicity”.

In the case of Cc1cn([C@H]2C[C@H](O)[C@@H](CO)O2)c(=O)[nH]c1=O [thymidine], the “rescue of cellular toxicity associated with Tomudex” value [5] is reported as “rescues the cellular toxicity associated with the Tomudex”.
